The values that follow come from patent publication US7811760B2, “Vector and method for detecting the change in transcription amount” (priority 2006, dated 2010).

In the test the target is T1, C57/BL6-line mouse AhR (Mus musculus, UniProt P30561).
T1 construct: The AhR gene-coding region of the C57/BL6-line mouse was amplified from the reverse-transcribed sample by means of PCR; expressed in transfected cells; host or cells: mouse neuroblastoma Neuro2a, transient transfection with LIPOFECTAMINE 2000
T1 sequence (P30561 10-805 M324I/F348L/P471L/N533S/M589L/T758A limits assumed): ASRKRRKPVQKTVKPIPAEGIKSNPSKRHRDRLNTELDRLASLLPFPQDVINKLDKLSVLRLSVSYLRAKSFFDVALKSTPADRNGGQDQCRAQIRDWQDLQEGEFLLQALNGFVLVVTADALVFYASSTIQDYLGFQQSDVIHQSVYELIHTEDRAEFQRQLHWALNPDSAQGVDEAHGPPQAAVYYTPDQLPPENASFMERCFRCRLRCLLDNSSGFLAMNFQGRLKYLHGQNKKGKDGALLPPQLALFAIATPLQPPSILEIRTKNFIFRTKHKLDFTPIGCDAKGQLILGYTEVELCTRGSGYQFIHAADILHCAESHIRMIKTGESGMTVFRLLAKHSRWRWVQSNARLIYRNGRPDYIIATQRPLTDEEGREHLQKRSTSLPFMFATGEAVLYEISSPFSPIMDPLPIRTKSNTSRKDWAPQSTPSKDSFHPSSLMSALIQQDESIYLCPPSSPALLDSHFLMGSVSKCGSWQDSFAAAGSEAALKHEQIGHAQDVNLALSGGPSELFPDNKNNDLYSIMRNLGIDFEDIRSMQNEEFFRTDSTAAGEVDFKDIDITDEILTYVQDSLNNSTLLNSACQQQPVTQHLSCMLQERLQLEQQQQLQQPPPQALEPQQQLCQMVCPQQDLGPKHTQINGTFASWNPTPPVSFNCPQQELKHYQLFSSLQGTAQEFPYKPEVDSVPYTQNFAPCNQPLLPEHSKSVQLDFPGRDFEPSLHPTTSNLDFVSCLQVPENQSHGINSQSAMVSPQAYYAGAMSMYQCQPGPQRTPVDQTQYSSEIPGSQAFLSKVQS
In words: Reporter gene assay in Neuro2a with pTHE100×3/Luc and PGV-mAhR. Format: cell-based. The note with it: 1 to 10,000 pM TCDD. An excerpt: In Example 8, the vector pTHE100×3/Luc (Example 7, FIG. 7A) was used as the vector containing a reporter gene, and Neuro2a was used as the cell.
In this Example, a combination of pcDNA4-rAhR (Example 1) containing the SD-line rat AhR gene and pcDNA4/V5-His/lacZ (Invitrogen), as well as a combination of PGV-mAhR (Example 1) containing the C57/BL6-line mouse AhR gene and pcDNA4/V5-His/lacZ were used as the vectors for introducing into the cell together with pTHE100×3/Luc. pcDNA4-rAhR was introduced into the cell for constitutive expression of the SD-line rat AhR (SEQ ID No: 10); PGV-mAhR was introduced into the cell for constitutive expression of C57/BL6-line mouse AhR (SEQ ID No: 11); and pcDNA4/V5-His/lacZ was introduced into the cell for normalization of the transfection efficiency of the vector.
The vectors were introduced into the cell by using LIPOFECTAMINE 2000, similarly to the method described in Example 3. After the above vectors were introduced into the cell, the obtained cell was exposed to 1 to 10,000 pM of TCDD to examine the increase in expression amount of the reporter gene in response to TCDD.
In general terms: In a reporter assay the amount or activity of a reporter protein is the signal.

Take `Clc1cc2c(cc1Cl)Oc1cc(Cl)c(Cl)cc1O2` [TCDD, 2,3,7,8-tetrachlorodibenzo-p-dioxine]: the “induction of transcription of the reporter gene in response to TCDD” value was “effective in inducing transcription of the reporter gene”.
